For assay [1], the system named is tumor cells and THP1 cells. Put plainly: Tumor cell growth, high-content image-based approach.
Assay [2] deals with T1, STING (Homo sapiens, UniProt Q86WV6, G230A/H232R/R293Q/R71H).
T1 construct: endogenous in cells; host or cells: THP1 cells
Put plainly: Role of STING palmitoylation in THP1 cells. The format is cell-based.

Assay [3] has as its system THP1 cells. Put plainly: Caspase-Glo 3/7 apoptosis assay in THP1 cells. The settings on record: THP1, Lipofectamine LTX, 20 h. It is filed as cell-based. The protocol:
The Apoptosis in THP1 cells was assessed using Caspase-Glo® 3/7 Assay (Promega). […] The caspase-3 and -7 activity was measured by using a pro-luminescent caspase-3/7 substrate that contains the tetrapeptide sequence DEVD which is cleaved to release amino-luciferin, a substrate of luciferase used in the production of light. After incubation for 20 h, Apoptotic activity was assessed by measuring levels of amino-luciferin. % Apoptosis was calculated from fold-change in luminescence compared to DMSO-treated sample. CC50 values are generated by curve fit in Xlfit.

The next assay relates to CT26 colon cancer. Put plainly: Syngeneic CT26 colon cancer mouse model. It is filed as in vivo.
A further assay deals with mouse melanoma cells. As to the kind of experiment: Apoptosis of mouse melanoma cells. It is filed as cell-based.
In assay [4] the target is T2, STING (Homo sapiens, UniProt Q86WV6).
T2 construct: host or cells: SZ14 HEK293 cells stably expressing ISG54 ISRE-luc reporter
T2 sequence (Q86WV6 whole entry): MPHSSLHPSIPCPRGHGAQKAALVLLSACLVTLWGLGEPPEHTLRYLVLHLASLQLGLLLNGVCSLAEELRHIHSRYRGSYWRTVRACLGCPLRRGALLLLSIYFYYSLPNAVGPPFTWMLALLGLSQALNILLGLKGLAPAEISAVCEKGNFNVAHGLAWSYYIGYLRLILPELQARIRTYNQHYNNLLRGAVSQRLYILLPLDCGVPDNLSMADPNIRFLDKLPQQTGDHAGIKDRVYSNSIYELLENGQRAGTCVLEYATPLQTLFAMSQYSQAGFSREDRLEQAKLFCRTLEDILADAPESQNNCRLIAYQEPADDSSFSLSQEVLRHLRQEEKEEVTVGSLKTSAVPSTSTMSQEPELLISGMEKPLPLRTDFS
As to the kind of experiment: STING binding / type I IFN signaling (ISRE-luciferase). The format is cell-based. The settings on record: similar to 2′,3′-cGAMP. The protocol: SZ14 HEK293 cells stably expressing the ISG54 ISRE-luc reporter gene were treated with compound exemplary compounds Cmd 1, 2′ 3-cGAMP (natural STING ligand), or DMSO in the presence of digitonin for 5-6 hrs. ISRE-luciferase activity was determined and normalized to DMSO treated cells (mean±standard deviation of triplicate wells per stimulant).

In assay [5] the test system is human natural killer (NK) cells. Put plainly: Human natural killer (NK) cell activation. The format is cell-based.
Another assay relates to THP1 cells and PBMCs. As to the kind of experiment: Gene expression of ISGs and PRRs in THP1 and PBMCs (real time PCR). The format is cell-based. The settings on record: 5 uM, Lipofectamine LTX, 20 h. The method, then: (§1) After incubation for 20 h, RNA was extracted and gene expression of different Interferon Stimulated Genes (ISGs) and various Pattern Recognition Receptors (PRRs) was evaluated by real time PCR. Fold Induction was calculated by ΔΔct method.
as §1
A general note: Quantitative PCR measures a nucleic acid by following its amplification.

A further assay relates to human monocytes. As to the kind of experiment: Activity in human monocytes. The format is cell-based. To be noted: human monocytes (FIG. 36A).
In the next assay the test system is NF-κβ-luc reporter. Put plainly: NF-κβ-luc reporter activation in HEK293 (SZ14) cells, screen for STING agonists. The format is cell-based. The settings on record: digitonin buffer, 5 hours, read-out: NF-KB EC50. The method, then:
ISG54 or NF-κβ activity was determined using the Steady-glo buffer system (Promega), and are expressed as EC50 values summarized in Table 3 below. […] This calculation is applicable for compounds with enzyme inhibition activity, as the baseline for an untreated sample may be set at 100% enzymatic activity, and therefore % inhibition is evaluated based on this 100% maximal basis. For these studies, the EC50 value relates to the concentration required to achieve a value 50% activity level above the untreated sample set at 0%.
Data are shown as fold induction over cells that received DMSO (compound carrier) alone as the mean, +/−standard deviation of duplicate wells per stimulant.

Assay [6] deals with THP1 cells. As to the kind of experiment: Type III IFN (IL-29) production in THP1 cells (ELISA). It is filed as cell-based. To be noted: 21 hrs. The method, then:
Level of IL-29 in culture supernatant was determined using ELISA. Results shown are the average±standard deviation of duplicate wells.
On the technique in general: In an ELISA, binding on a coated surface is turned into a signal by an enzyme label.

Data on 1 compound can be found in patent publication US11033569B2, “Compounds,Compositions, and methods for the treatment of disease” (Sperovie Biosciences, Inc., priority 2016, dated 2021).

pEC50: −log10 of the molar value.

T1 sequence (Q86WV6 whole entry R71H/G230A/H232R/R293Q): as the sequence (Q86WV6 whole entry) above, with R71H, G230A, H232R, R293Q counted along it

The term pEC50 denotes the EC50 on a negative log10 scale, so that one unit is a factor of ten. With `CCCCCCCCCCOc1ccc(C(=O)Oc2ccc(CSP3(=O)OC[C@H]4O[C@@H](n5cnc6c(N)ncnc65)[C@H](F)[C@@H]4OP(=O)(O)OC[C@H]4O[C@@H](n5ccc(=O)[nH]c5=O)[C@H](F)[C@@H]4O3)cc2)cc1.N` (some centres unmarked) [Cmd 1], in assay [1] (high-content image-based approach (FIG. 49)), the anti-tumor activity entry is on record as “anti-tumor activity”. The “STING dependence of tumor cell growth inhibition” value in assay [1] (tumor cells and THP1 cells) is “STING dependent”. Moreover, in assay [1] (tumor cells and THP1 cells, high-content image-based approach), the tumor cell growth result was “inhibits tumor cell growth”. For the same compound, on STING [2], the “involvement of STING palmitoylation in activation of NF-κB and IRF-type I interferon response” value is given as “palmitoylation of STING is involved”. The apoptosis result in the assay on THP1 cells [3] was “Causes Cell Death by Apoptosis”; with mouse melanoma cells it was “causes apoptosis”. Besides, the “abscopal antitumoral activity, tumor volume left and right flank” value in the assay with CT26 colon cancer (administered intratumorally, 13 days post initiation treatment, vs vehicle) is reported as “considerable tumor growth inhibition”. Besides, the survival rate entry in the assay with CT26 colon cancer (combination therapy with an anti-CTLA4 antibody) and in the assay with CT26 colon cancer (monotherapy) was “significantly improve the survival rate” each time. In addition, the tumor growth result in the assay on CT26 colon cancer (doses 10 μg, 30 μg, and 100 μg, vs vehicle) is reported as “considerable tumor growth inhibition at all three doses”; in the assay on CT26 colon cancer (intratumoral administration, vs vehicle (FIG. 79)), “considerable tumor growth inhibition”; with CT26 colon cancer (intratumoral administration, vs vehicle, vehicle and Ethanol (FIG. 80)), “considerable tumor growth inhibition”; in the assay on CT26 colon cancer (syngeneic CT26 colon cancer model (FIG. 62)), “highly effective in inhibiting tumor growth”. Also, the “STING binding and type 1 IFN signaling” value at STING [4] is on record as “binds to STING to activate type 1 IFN signaling”. Further, in assay [5], the NK cell activation result is “activates human natural killer (NK) cells”. For the same compound, the IFN-γ production entry in assay [5] (human NK cells) is reported as “induces IFN-γ production”. Moreover, the “induction of ISG and PRR-associated genes, THP1 compared to PBMCs” value in the assay with THP1 cells and PBMCs is “selective and enhanced induction of ISG and PRR-associated genes”. Also, the “activity relative to natural STING ligand 3′,3′-cGAMP” value in the assay with human monocytes is “more active”. Also, the negative-log EC50 (pEC50) in the assay with NF-κβ-luc reporter was 6.30 to 7.30. In addition, the “type III interferon (IL-29) production” value with THP1 cells [6] is reported as “induce type III interferon (IL-29) production”.
